Patent publication US11773096B2, “Small-molecule PI5P4K alpha/beta inhibitors and methods of treatment using same” (YALE UNIVERSITY, priority 2018, dated 2023)

Experiments:
NEK1 = NEK1 (Homo sapiens, UniProt Q96PY6); assay: HotSpot protein kinase panel; settings: read-out: NEK1 activity remaining
BT474 cells [1] = assay: Glucose consumption and lactate secretion in BT474 cells; type: cell-based
Protocol: (§1) To measure glucose consumption and lactate production, a total of 1×10^5 cells were seeded into each well of a 12-well plate and cultured in the presence of compound for 48 hrs. The culture media were collected and deproteinized by centrifugation using an Amicon Ultra centrifugal filter (3 kDa cut-off), while cells were lysed and used for protein concentration determination by BCA assay. The media were assayed immediately for glucose and lactate levels using colorimetric assay kits from BioVision following the manufacturer's protocols. The values were normalized against protein concentration. All measurements were made in triplicate.

Vps34 = Vps34 (Homo sapiens, UniProt Q8NEB9); assay: In vitro lipid kinase profiling
PI3Kγ = PI3Kγ (Homo sapiens, UniProt P48736); assay: Lipid kinase panel (ADP-Glo)
Protocol: (§4) In both titrations, the ATP concentration was fixed at 50 μM.

L6 myotubes = assay: Immunoblot analysis of ACC phosphorylation in L6 myotubes; type: cell-based, rat; settings: dose-dependent
Protocol: (§2) BT-474 and MCF7 breast cancer cells, C2Cl2 mouse myoblast cells, and HEK 293T cells were maintained in high-glucose DMEM medium containing 10% FBS. L6 rat myoblast cells were maintained in α-MEM medium containing 10% FBS. For differentiation into myotubes, C2Cl2 cells were kept in DMEM medium containing 2% horse serum for 5 days, and L6 cells were kept in α-MEM medium containing 2% FBS for 7 days. Amino-acid-free DMEM medium was prepared using powder from USBio, and MEM amino acids solution was from Gibco. Media were all supplemented with 100 U/ml penicillin/streptomycin. Cell lines were purchased from ATCC.
(§3) After wash with cold DPBS buffer, cells were lysed in RIPA buffer that contained 50 mM Tris-HCl pH 8.0, 150 mM NaCl, 1 mM EDTA, 1 mM EGTA, 1% NP-40, 0.5% sodium deoxycholate, 0.1% SDS, and protease and phosphatase inhibitor cocktails (Roche). Total protein concentrations were measured using a BCA assay (Thermo scientific). Cell lysate (about 80 μg protein) was resolved by SDS-PAGE and blotted onto PVDF membranes. The membranes were probed overnight at 4° C. with appropriate primary antibodies (Cell Signaling Technology) and incubated with secondary fluorescent antibodies (LI-COR Biosciences) for 1 hr at room temperature before imaging by an Odyssey CLx system.

Plk1 [2] = molecular target: T1, Plk1 (Homo sapiens, UniProt P53350); assay: Plk1 kinase assay kit (Promega, ADP-Glo); settings: ATP 50 μM
Protocol: (§5) In both titrations, the ATP concentration was fixed at 50 μM. The assay kits for Plk1 and RSK2 were obtained from Promega (Madison, Wis.), which use ADP-Glo™ for activity detection.

PI4P5Kα = PI4P5Kα (Homo sapiens, UniProt Q99755); assay: Lipid kinase assay / panel (ADP-Glo)
Text: The assay kits for Plk1 and RSK2 were obtained from Promega (Madison, Wis.), which use ADP-Glo™ for activity detection.

PLK2 = PLK2 (Homo sapiens, UniProt Q9NYY3); assay: HotSpot protein kinase panel; settings: read-out: PLK2 activity remaining
Protocol: as §5

MCF10A p53(−/−) cells = assay: Growth of isogenic MCF10A cells, p53(−/−); type: cell-based
EIF2AK3 = EIF2AK3 (Homo sapiens, UniProt Q9NZJ5); assay: HotSpot protein kinase panel; settings: read-out: EIF2AK3 activity remaining
C2Cl2 myotubes = assay: Immunoblot analysis of signaling in C2Cl2 myotubes; type: cell-based, mouse
Protocol: as §2, §3

[3] = tested on: panel of 14 lipid kinases; assay: Lipid kinase panel (ADP-Glo), panel as a whole; settings: compound 0.5 μM, ATP 10 μM
Protocol: as §4

PI4P5Kγ = PI4P5Kγ (Homo sapiens, UniProt O60331); assay: Lipid kinase panel (ADP-Glo); settings: read-out: PI4P5Kγ activity remaining
c-MER = c-MER (Homo sapiens, UniProt Q12866); assay: HotSpot protein kinase panel; settings: read-out: c-MER activity remaining
mTOR/FRAP1 = mTOR/FRAP1 (Homo sapiens, UniProt P42345); assay: In vitro kinase profiling; type: biochemical
Plk1 [4] = molecular target: T1, Plk1; assay: HotSpot protein kinase panel; settings: read-out: Plk1 activity remaining
Protocol: as §5

BT-474 cells = assay: Intracellular ROS (DCFDA); type: cell-based; settings: 20 μM
Protocol: 2′,7′-dichlorofluorescin diacetate (DCFDA) was used to assess intracellular ROS levels. DCFDA is deacetylated in the cell and oxidized by ROS to a fluorescent product 2′,7′-dichlorofluorescein (DCF). BT-474 cells were plated on a black clear-bottom 96-well plate (Corning 3603; 2×10^4 cells per well). ROS was measured by a DCFDA cellular ROS detection assay kit (Abcam) following the manufacturer's protocol. The cells were treated with compound for 6 hrs before fluorescence was measured using a SpectraMax M5 plate reader (excitation 485 nm, emission 535 nm).

PI3Kδ = PI3Kδ (Homo sapiens, UniProt O00329); assay: Lipid kinase panel (ADP-Glo)
Protocol: as §4

BT474 cells [5] = assay: Cell cycle analysis by flow cytometry; type: cell-based
Protocol: To monitor cell cycle progression, cells were harvested by trypsinization, washed with DPBS, and fixed with cold 70% ethanol for 30 min at 4° C. Before analysis, 2×10^6 cells were washed with DPBS three times and treated with 100 μl 100 μg/ml ribonuclease (DNase-free; Sigma Aldrich) for 10 min at room temperature. Samples were then stained for total DNA using 400 μl DPBS containing 50 μg/ml propidium iodide (Invitrogen). Cell cycle distribution was analyzed by a BD LSR II flow cytometer.

myotubes = assay: Glucose consumption and lactate production in myotube culture media; type: cell-based
Protocol: as §1

MCF7 cells = assay: Immunoblot analysis of AMPK activation in MCF7 cells; type: cell-based
Protocol: as §3

RSK2 = RSK2 (Homo sapiens, UniProt P51812); assay: HotSpot protein kinase panel; settings: read-out: RSK2 activity remaining
Protocol: as §5

Chain of PI4P5Kα (Q99755 whole entry): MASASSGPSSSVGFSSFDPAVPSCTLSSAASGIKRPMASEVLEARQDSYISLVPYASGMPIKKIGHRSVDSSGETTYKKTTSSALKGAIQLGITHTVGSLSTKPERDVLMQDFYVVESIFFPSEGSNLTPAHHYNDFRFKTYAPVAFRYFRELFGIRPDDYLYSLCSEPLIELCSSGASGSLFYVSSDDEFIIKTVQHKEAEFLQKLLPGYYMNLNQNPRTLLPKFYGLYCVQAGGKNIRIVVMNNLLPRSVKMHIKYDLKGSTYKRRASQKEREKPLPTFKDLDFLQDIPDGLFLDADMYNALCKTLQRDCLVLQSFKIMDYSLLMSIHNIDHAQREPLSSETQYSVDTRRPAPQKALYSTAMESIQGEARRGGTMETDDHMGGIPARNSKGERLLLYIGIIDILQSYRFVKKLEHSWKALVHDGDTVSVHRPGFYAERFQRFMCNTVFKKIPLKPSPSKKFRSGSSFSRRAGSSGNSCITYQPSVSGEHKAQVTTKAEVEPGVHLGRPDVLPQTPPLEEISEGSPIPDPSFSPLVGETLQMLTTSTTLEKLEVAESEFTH
T1 sequence (P53350 whole entry): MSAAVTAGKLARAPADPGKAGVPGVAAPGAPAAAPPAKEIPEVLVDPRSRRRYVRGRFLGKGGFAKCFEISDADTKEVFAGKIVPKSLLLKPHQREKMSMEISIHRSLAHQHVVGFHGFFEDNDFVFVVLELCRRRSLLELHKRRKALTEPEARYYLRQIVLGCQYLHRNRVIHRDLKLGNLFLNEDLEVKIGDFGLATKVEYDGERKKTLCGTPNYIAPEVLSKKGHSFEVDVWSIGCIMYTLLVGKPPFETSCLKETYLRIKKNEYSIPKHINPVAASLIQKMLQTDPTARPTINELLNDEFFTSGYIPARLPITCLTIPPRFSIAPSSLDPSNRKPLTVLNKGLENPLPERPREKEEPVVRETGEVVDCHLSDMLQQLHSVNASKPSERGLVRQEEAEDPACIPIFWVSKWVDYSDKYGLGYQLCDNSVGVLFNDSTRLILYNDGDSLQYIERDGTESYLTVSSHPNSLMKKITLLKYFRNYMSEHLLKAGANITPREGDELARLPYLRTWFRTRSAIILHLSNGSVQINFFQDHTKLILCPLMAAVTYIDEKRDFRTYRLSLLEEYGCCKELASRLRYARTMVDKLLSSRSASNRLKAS
Chain of PI3Kγ (P48736 whole entry, species assumed): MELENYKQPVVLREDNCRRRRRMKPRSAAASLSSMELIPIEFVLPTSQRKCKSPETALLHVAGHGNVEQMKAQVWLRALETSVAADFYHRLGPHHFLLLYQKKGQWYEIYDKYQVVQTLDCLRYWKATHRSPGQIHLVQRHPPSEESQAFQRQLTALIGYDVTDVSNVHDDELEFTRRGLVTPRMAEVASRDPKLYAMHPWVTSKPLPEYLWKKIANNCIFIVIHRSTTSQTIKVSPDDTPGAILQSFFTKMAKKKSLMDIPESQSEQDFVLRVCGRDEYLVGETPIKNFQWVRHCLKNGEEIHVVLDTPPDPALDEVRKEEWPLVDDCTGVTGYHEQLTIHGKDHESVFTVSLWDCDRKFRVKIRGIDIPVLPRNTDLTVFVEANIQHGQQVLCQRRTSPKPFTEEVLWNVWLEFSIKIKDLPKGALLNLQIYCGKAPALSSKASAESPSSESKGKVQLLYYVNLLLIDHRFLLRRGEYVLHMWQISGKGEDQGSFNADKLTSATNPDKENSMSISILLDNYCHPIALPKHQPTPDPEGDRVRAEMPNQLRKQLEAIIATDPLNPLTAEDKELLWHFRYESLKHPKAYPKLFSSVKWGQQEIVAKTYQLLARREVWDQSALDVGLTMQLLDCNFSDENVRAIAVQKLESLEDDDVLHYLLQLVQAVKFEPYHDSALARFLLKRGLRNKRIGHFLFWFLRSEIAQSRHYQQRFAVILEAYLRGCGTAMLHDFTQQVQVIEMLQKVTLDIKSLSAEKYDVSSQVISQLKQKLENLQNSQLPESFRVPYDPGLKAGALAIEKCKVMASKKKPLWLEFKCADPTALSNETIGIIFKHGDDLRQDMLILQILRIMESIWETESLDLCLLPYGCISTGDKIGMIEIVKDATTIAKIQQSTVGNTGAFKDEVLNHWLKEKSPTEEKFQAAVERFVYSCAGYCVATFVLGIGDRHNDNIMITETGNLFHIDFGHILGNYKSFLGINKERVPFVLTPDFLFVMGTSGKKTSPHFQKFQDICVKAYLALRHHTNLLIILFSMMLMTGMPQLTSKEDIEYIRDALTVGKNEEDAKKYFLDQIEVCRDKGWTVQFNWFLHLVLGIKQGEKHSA
Chain of EIF2AK3 (Q9NZJ5 30-1116): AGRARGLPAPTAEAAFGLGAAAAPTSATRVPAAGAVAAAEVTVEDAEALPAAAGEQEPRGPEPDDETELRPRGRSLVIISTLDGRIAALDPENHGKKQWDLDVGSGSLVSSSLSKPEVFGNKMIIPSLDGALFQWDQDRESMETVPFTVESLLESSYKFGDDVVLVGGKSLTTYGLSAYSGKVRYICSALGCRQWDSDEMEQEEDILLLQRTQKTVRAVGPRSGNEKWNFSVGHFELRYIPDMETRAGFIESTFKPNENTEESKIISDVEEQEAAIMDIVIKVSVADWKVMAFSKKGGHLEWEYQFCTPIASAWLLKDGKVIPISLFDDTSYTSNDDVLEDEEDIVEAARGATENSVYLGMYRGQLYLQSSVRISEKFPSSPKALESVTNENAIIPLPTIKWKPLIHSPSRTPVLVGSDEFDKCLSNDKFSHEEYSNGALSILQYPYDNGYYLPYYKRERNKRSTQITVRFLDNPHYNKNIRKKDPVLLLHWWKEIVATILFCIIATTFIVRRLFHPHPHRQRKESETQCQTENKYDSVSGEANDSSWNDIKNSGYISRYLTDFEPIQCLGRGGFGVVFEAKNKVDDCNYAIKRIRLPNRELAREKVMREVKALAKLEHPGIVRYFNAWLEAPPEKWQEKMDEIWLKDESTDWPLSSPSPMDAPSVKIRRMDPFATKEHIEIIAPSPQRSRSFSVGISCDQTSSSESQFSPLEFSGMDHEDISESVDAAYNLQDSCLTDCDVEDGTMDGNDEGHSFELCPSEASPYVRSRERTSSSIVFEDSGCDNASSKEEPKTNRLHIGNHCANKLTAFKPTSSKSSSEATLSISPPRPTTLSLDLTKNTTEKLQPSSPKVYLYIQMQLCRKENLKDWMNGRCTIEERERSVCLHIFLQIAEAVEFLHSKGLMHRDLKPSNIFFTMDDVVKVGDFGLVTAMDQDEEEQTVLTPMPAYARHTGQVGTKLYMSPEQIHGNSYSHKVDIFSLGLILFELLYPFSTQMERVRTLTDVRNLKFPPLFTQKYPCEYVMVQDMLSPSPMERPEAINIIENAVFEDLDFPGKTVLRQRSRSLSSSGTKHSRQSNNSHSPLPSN
Chain of NEK1 (Q96PY6 whole entry): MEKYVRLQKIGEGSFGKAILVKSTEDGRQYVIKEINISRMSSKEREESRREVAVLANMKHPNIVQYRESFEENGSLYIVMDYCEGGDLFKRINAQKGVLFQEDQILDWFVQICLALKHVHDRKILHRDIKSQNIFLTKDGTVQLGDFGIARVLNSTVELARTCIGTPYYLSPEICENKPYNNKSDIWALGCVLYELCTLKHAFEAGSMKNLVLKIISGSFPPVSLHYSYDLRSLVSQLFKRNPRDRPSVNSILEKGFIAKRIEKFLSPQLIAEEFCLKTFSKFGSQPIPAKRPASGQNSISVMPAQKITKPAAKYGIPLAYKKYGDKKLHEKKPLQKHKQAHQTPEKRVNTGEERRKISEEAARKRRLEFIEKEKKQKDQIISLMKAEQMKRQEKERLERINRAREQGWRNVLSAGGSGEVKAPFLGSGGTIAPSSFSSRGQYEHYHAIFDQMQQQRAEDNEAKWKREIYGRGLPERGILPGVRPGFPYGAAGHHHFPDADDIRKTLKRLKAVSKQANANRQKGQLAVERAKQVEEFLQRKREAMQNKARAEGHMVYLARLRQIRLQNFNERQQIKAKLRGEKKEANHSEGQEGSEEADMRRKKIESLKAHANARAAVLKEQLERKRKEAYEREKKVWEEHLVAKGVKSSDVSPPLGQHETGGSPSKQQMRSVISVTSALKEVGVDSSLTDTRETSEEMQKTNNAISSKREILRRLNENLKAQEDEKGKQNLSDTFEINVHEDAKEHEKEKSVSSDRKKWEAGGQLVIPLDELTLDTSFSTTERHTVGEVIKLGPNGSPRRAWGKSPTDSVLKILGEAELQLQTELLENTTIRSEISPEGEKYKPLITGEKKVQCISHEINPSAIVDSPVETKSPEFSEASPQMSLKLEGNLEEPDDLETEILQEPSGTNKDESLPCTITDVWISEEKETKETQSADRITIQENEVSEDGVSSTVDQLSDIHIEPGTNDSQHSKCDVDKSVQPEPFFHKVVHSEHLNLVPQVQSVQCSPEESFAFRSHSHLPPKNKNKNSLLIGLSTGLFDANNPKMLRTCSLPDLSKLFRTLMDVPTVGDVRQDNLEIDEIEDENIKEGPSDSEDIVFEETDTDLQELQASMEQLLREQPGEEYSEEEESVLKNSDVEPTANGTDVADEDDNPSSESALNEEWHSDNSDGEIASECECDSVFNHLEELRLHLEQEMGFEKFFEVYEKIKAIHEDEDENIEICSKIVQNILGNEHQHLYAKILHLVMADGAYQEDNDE

Compound: CN1C(=O)[C@@H](CC2CCCC2)N(C2CCCC2)c2nc(Nc3cc(Cl)c(O)c(Cl)c3)ncc21 [7a, (R)-8-cyclopentyl-7-(cyclopentylmethyl)-2-((3,5-dichloro-4-hydroxyphenyl)amino)-5-methyl-7,8-dihydropteridin-6(5H)-one]
- remaining activity at 0.5 µM (NEK1): 67%
- lactate fermentation (BT474 cells [1]; absence of serum): slightly increased
- metabolic switch induced by serum (glucose consumption, lactate secretion) (BT474 cells [1]; with serum): prevented
- inhibition of Vps34 (Vps34): not inhibited
- Ki (PI3Kγ): ~200 nM
- phosphorylation of acetyl-CoA carboxylase (ACC) (L6 myotubes): significantly increased
- inhibition of Plk1 (Plk1 [2]): no longer inhibited
- Ki (PI4P5Kα): ~5000 nM
- remaining activity at 0.5 µM (PI4P5Kα; read-out: PI4P5Kα activity remaining): 95%
- remaining activity at 0.5 µM (PLK2): 75%
- residual growth of p53(−/−) cells under EGFR inhibition (MCF10A p53(−/−) cells; 10 μM 7a): eliminated
- sensitivity of growth of p53(−/−) vs p53(+/+) cells (MCF10A p53(−/−) cells; without EGF supplement): more sensitive
- remaining activity at 0.5 µM (EIF2AK3): 50%
- basal and insulin-induced phosphorylation of S6K at Thr-389 (C2Cl2 myotubes): reduced
- phosphorylation of acetyl-CoA carboxylase (ACC) (C2Cl2 myotubes; C2Cl2 myotubes, dose-dependent): significantly increased
- IRS phosphorylation at Ser-302 (C2Cl2 myotubes; FIG. 3D): reduced
- Akt phosphorylation (C2Cl2 myotubes; FIG. 3D, comparison 7a vs rapamycin): more pronounced effect
- hormone-induced Akt phosphorylation, especially at Ser-473 (C2Cl2 myotubes; overnight incubation with 20 μM): increased
- inhibition of other lipid kinases of the panel [3]: did not inhibit most PI3Ks, PI4Ks or sphingosine kinases
- remaining activity at 0.5 µM (PI4P5Kγ): 98%
- remaining activity at 0.5 µM (c-MER): 67%
- inhibition of mTOR/FRAP1 in vitro (mTOR/FRAP1): did not inhibit
- remaining activity at 0.5 µM (Plk1 [4]): 97%
- ROS (BT-474 cells): increased
- Ki (PI3Kδ): ~120 nM
- cell cycle distribution (BT474 cells [5]): accumulation of cells in the G0/G1 phase
- lactate accumulated in the media (myotubes; 48 hours after treatment): 7.7 mM
- reduction of glucose concentration in the media (myotubes; 48 hours after treatment): 10.3 mM
- increase in glucose consumption (myotubes; after 2 days of cell culture): 32%
- increase in lactate secretion (myotubes; after 2 days of cell culture): 45%
- AMPK activation (MCF7 cells; MCF7, absence of serum): caused AMPK activation
- AMPK activation (MCF7 cells; MCF7, with serum): no longer caused AMPK activation
- remaining activity at 0.5 µM (RSK2): 83%
